Where a SMILES comes first, the peptide text is derived from it. [ ]: non-standard residue; d: D form. Dmt = Cc1cc(O)cc(C)c1C[C@H](N)C(=O)O
Key:
SH-SY5Y = assay: tBHP-induced LDH release; format: cell-based, human; conditions: 100 μM tBHP
Experimental: (§1) FIG. 18A-18B. SS-31 reduced tBHP-induced LDH release in SH-SY5Y (A) and N2A (B) cells. Cells were treated with 100 μM tBHP alone, or with SS-31, for 24 h. *P<0.05, **P<0.01, ***P<0.001, compared to tBHP alone.
(§2) The loss of cell viability induced by 100 μM tBHP was accompanied by a significant increase in LDH release in SH-SY5Y (FIG. 18A) and N2A cell (FIG. 18B).

[1] = tested on: G93A transgenic familial ALS mice; assay: Disease onset, survival and tolerability in ALS mice; format: in vivo; conditions: 5 mg/kg SS-31 i.p.
Experimental: FIG. 25A-25B. (A) Cumulative probability of disease on set and survival with SS-31 5 mg/kg/day treatment (n=14) […] as compared to vehicle treatment (n=14). […] (B) Mean survival (days) of G93A mice treated with vehicle or SS-31 5 mg/kg/day. (Data are mean±SD, p<0.05, Student's t-test).
Treatment with 5 mg-kg SS-31 i.p. started at 30 days of age of G93A transgenic familial amyotrophic lateral sclerosis (ALS) mice (high copy number, B6SJL-Tg(SOD1-G93A)1Gur/J) led to a significant delay of disease onset as defined by the appearance of tremor and hind limb clasping as well as deterioration in the rotarod performance, the average age of onset in the control group was 88+7 days, in the SS-31 treated group 95+6 days (p<0.05, Logrank (Mantel-Cox)). […] There was a gender effect on survival which has been observed in previous studies with this model as well in G93A mice in this background with males having a shorter life span than females (average of 5 days).

N2A cells [2] = assay: tBHP-induced LDH release; format: cell-based, murine; conditions: 100 μM tBHP
Experimental: as §1, §2

SH-SY5Y cells = assay: Cell viability, MTS assay, cells treated with tBHP; format: cell-based, human; conditions: t-BHP 0.05-0.1 mM, 24 h
Experimental: Neuronal N2A and SH-SY5Y cells were plated in 96-well plate at a density of 1×10^4/well and allowed to grow for 2 days before treatment with t-butyl hydroperoxide (tBHP) (0.05-0.1 mM) with or without SS-31 (10^−12 M to 10^−9 M for 24 h. Cell death was assessed by a cell proliferation assay (MTS assay, Promega, Madison, Wis.).

N2A cells [3] = assay: Pan-caspase activity (FLICA kit) after tBHP; format: cell-based, murine
Experimental: FIG. 21A-B. SS-31 prevented caspase activation in N2A cells treated with tBHP. […]
[…] All treatments were carried out in quadriplicates. […] Cells were gently lifted from the plates with a cell detachment solution (Accutase, Innovative Cell Technologies, Inc., San Diego, Calif.) and washed twice in PBS. Caspase activity was assayed using the FLICA kit (Immunochemistry Technologies LLC, Bloomington, Minn.) According to the manufacturer's recommendation, cells were resuspended (approx. 5×10^6 cells/ml) in PBS and labeled with pan-caspase inhibitor FAM-VAD-FMK for 1 h at 37° C. under 5% CO2 and protected from the light. Cells were then rinsed to remove the unbound reagent and fixed. Fluorescence intensity in the cells was measured by a […] (Beckman-Coulter XL, Beckman Coulter, Inc., Fullerton, Calif.) using the standard emission filters for green (FL1). For each run, 10,000 individual events were collected and stored in list-mode files for off-line analysis.

[4] = tested on: isolated guinea pig hearts; assay: Isolated hearts, 18 h cold ischemia followed by warm reperfusion; conditions: 1 nM SS-31 in cardioplegic solution, 18 h at 4° C.
Experimental: Isolated guinea pig hearts were perfused in a retrograde manner in a Langendorff apparatus with a cardioplegic solution (St. Thomas solution) without or with SS-31 (1 nM) for 3 min. and then clamped and stored at 4° C. for 18 h. Subsequently, the hearts were remounted in the Langendorff apparatus and reperfused with Krebs-Henseleit solution at 34° C. for 90 min. Hearts were then rapidly fixed and paraffin-embedded.
(B) Immunohistochemical analysis of HNE-modified proteins in paraffin sections from guinea pig hearts stored without (a) or with (b) SS-31 (1 nM). (c) Background staining without primary antibody.
Apoptosis was assessed by the TUNEL stain (green) and nuclei are visualized by DAPI (blue).

N2A cells [5] = assay: Mitochondrial potential (TMRM) after tBHP; format: cell-based, murine; conditions: 0.1 mM t-BHP, 1 nM SS-31, 6 h
Experimental: N2A cells in glass bottom dish were treated with 0.1 mM t-BHP, alone or with 1 nM SS-31, for 6 h. Cells were then loaded with 10 μm of dichlorofluorescin (ex/em=485/530) for 30 min at 37° C., 5% CO2. Then cells were subjected 3 times wash with HBSS and stained with 20 nM of Mitotracker TMRM (ex/em=550/575 nm) for 15 min at 37° C. and examined by confocal laser scanning microscopy.

[6] = tested on: C57BL/6 mice subjected to 30 min MCAO; assay: Redox status (cysteine, ascorbate, GSH) after transient MCAO; format: in vivo; conditions: 2 mg/kg i.p. upon reperfusion, 6 h
Experimental: FIG. 31A-31C. Effect of SS-31 peptide on ischemia-induced changes in cysteine (A) ascorbate (B), and GSH (C) levels, C57BL/6 mice were subjected to 30 min MCAO and treated with vehicle, SS-31 (2 mg/kg body weight) or SS-20 (2 mg/kg body eight) peptide immediately after reperfusion. Mice were sacrificed at 6 h postischemia. Values are expressed as percent increase (cysteine) or percent depletion (ascorbate and GSH) in ipsilateral side versus contralateral side. Error bars indicate SEM (n=4-6 animals per group).
To test the efficacy of SS-3 1 on redox status, cysteine, ascorbate and GSH levels were determined 6 h after 30 min transient middle cerebral artery occlusion (MCAO) in mice treated intraperitoneally (i.p.) with saline (vehicle), SS-31 (2 mg/kg) or SS-20 (2 mg/kg) upon reperfusion. Values in FIG. 31 are expressed as percent increase (cysteine) and percent depletion (ascorbate and GSH) in the ipsilateral side compared to the contralateral side. Absolute values were originally expressed as nmoles/mg protein as shown in FIG. 30 and converted to percent difference. The percent ipsilateral cysteine increase was similar among vehicle-, SS-31-, and SS-20-treated groups (FIG. 31A).

Cc1cc(O)cc(C)c1C[C@H](NC(=O)[C@H](N)CCCNC(=N)N)C(=O)N[C@@H](CCCCN)C(=O)N[C@@H](Cc1ccccc1)C(N)=O [SS-31, D-Arg-2′6′-Dmt-Lys-Phe-NH2] (H-[dR][Dmt]KF-NH2; N-terminus assumed)
LDH release (SH-SY5Y; 0.1 and 1 nM of SS-31): reduced significantly | LDH release (SH-SY5Y; 24 h): dose-dependent decrease | average age of onset [1]: 95+6 days | survival [1]: 142+12 day | tolerability / side effects [1]: well tolerated and no side effects were observed | increase in survival ([1]; vs control): 9% | LDH release (N2A cells [2]; 0.1 and 1 nM of SS-31): reduced significantly | LDH release / tBHP-induced cytotoxicity (N2A cells [2]; 24 h): dose-dependent decrease | concentration achieving complete protection against t-BHP (SH-SY5Y cells): 1 nM | t-BHP-induced cytotoxicity (SH-SY5Y cells; concurrent treatment): dose-dependent reduction | increase in pan-caspase activity (N2A cells [3]; 100 μM tBHP, 24 h): dose-dependently prevented | caspase activity (N2A cells [3]; t-BHP 12 h): dose-dependently inhibited | apoptosis in endothelial cells and myocytes (TUNEL) [4]: prevents apoptosis | coronary flow [4]: significantly improved | lipid peroxidation (HNE-modified proteins) [4]: Reduces Lipid Peroxidation | mitochondrial depolarization (TMRM fluorescence) (N2A cells [5]): prevented mitochondrial depolarization | ischemia-induced GSH depletion in the cortex [6]: significantly attenuated | percent ipsilateral cysteine increase [6]: similar | percent ipsilateral depletion of ascorbate [6]: marginally but not significantly affected
